Assays:
kidney tissues [1] = experiment: MALDI MSI ion intensity of renal endogenous metabolites, rotenone-treated vs untreated kidney; format: in vivo, rat; design: key to Ion Intensity in Rotenone-treated Kidney Tissues: N-Acetylhistidine / Ion Intensity in Rotenone-treated Kidney Tissues: O-Phosphotyrosine / Ion Intensity in Rotenone-treated Kidney Tissues: Adenosine diphosphate / Ion Intensity in Rotenone-treated Kidney Tissues: LysoPC(P-16:0) / Ion Intensity in Rotenone-treated Kidney Tissues: LysoPC(16:1) / Ion Intensity in Rotenone-treated Kidney Tissues: LysoPC(16:0) / Ion Intensity in Rotenone-treated Kidney Tissues: LysoPC(17:0) / Ion Intensity in Rotenone-treated Kidney Tissues: LysoPC(18:2) / Ion Intensity in Rotenone-treated Kidney Tissues: L-carnitine / Ion Intensity in Rotenone-treated Kidney Tissues: LysoPC(18:1) / Ion Intensity in Rotenone-treated Kidney Tissues: LysoPC(20:4) / Ion Intensity in Rotenone-treated Kidney Tissues: Phosphorylcholine / Ion Intensity in Rotenone-treated Kidney Tissues: Adenosine monophosphate / Ion Intensity in Rotenone-treated Kidney Tissues: Creatinine / Ion Intensity in Rotenone-treated Kidney Tissues: Histidine / Ion Intensity in Rotenone-treated Kidney Tissues: Phenylalanine / Ion Intensity in Rotenone-treated Kidney Tissues: 3-methylhistidine / Ion Intensity in Rotenone-treated Kidney Tissues: Arginine: ↑ indicates higher ion intensity level than that of the control group; ↓ indicates lower ion intensity level than that of the control group; *p < 0.05; **p < 0.01; ***p < 0.001; settings: vs control; for Ion intensity in rotenone-treated kidney tissues: Glycero-3-phosphocholine / Ion intensity in rotenone-treated kidney tissues: Inosine / Ion intensity in rotenone-treated kidney tissues: LysoPC(18:0): [M+K]+
Experimental: (§1) Rats were sacrificed 24 h after drug administration, and the kidney and liver organs were immediately removed, flash-frozen with liquid nitrogen, and stored at −80°C in a freezer for long-term storage. The administration and harvesting of organs were conducted by the Pharmalytics Corporation, accredited by the Food and Drug Administration (FDA, Philippines) for bioavailability and bioequivalence research. The animal study was reviewed and approved by the Institutional Animal Care and Use Committee (IACUC) Esteleydes Animal Laboratory and Research Facility and by the Bureau of Animal Industry—Animal Health and Welfare Division in the Philippines.
To identify possible metabolic alterations, the m/z values of endogenous compounds found in kidney were extracted from the human metabolome database (http://www.hmdb.ca). The spatial mapping of endogenous compounds was visualized by MALDI HDMS imaging. The detection of metabolite biomarkers was supported by their spatial distribution, normalized ion intensity, m/z accuracy, and similar drift time bins in thin tissues sectioned from the seven identified layers of drug-treated and control rat kidney.
MALDI HDMS raw data was imported into High-Definition Imaging (HDI) software v1.5 (Waters Corporation, Manchester, United Kingdom). Data processing was performed by detecting 10,000 intense peaks between a mass range of m/z 50–750, a drift time maximum of 200 bins, and a lock mass-based correction at m/z 464.6064. Following data processing, peak picking was carried out and data was normalized based on the total ion current (TIC). The spatial distribution of rotenone and kidney endogenous molecules from the m/z peak list was visualized using the HDI software. […] The tentative identification and assignment of kidney metabolites were based on the metabolites in the human metabolome database (http://www.hmdb.ca). The m/z values and structure of these renal endogenous molecules were verified using PubChem (https://pubchem.ncbi.nlm.nih.gov), ChemDraw Professionals, and by the related literature ([Jung et al., 2016]; [Nizioł et al., 2020]; [Zhu Y. et al., 2022]).
A multivariate analysis was performed by importing the merged CSV file of processed MALDI image data into EZinfo v3.0 (Waters Corporation, Manchester, United Kingdom). Principal component analysis (PCA) was used to find patterns or trend in the MALDI dataset of the control and drug-treated groups. A peak list of biomolecules was manually created for PCA analysis from the laser-ablated kidney tissue sections. Pareto variance was used to scale the x-variable and to eliminate any bias in this unsupervised algorithm. Similar and far away observations between the dataset were illustrated based on the t[1] and t[2] indices. Meanwhile, the statistical differences between the mass ion intensity of endogenous compounds in two treatment groups were analyzed using the Student’s t-test of GraphPad Prism version 9.4.0 (GraphPad Software Inc., San Diego, CA, United States). The significance threshold was set at p < 0.05 (*), p < 0.01 (**), and p < 0.001 (***).

rats = settings: ref Jiang et al. (2017); cited from earlier work
kidney tissues [2] = experiment: H&E histology of rotenone-treated kidney tissue sections; format: in vivo; settings: rat, single oral 2 mg/kg, 24 h
Experimental: as §1
Matrix was removed from the laser-ablated kidney sections using 95% EtOH for 20 s before rehydration with distilled water. The tissue-mounted glass slides were immersed in Harris hematoxylin solution (Sigma Aldrich, St. Louis, MO, United States) for 4 min and the excess was rinsed off with deionized water twice for 1 min. Hematoxylin differentiation of tissues was then performed using 0.5% acid alcohol for 10 s. The glass slides were rinsed using deionized water for 1 min followed by soaking in ammonia solution for 1 min and rinsing in deionized water twice for 1 min. Kidney sections were then counterstained using eosin Y solution (Sigma Aldrich, St. Louis, MO, United States) for 2 min. […]

[3] = Qualitative MALDI MSI with ion mobility: spatial distribution of rotenone and its metabolites in kidney and liver; format: in vivo; settings: rat, single oral 2 mg/kg, 24 h
Experimental: Agarose-embedded kidney and liver organs were cut longitudinally at 5 µm thickness at −20°C using a cryostat (Leica CM 1950; Leica Biosystems, Germany), and thaw-mounted onto clean glass slides. The agarose-embedded kidney or liver was trimmed up to 500 µm to remove the agarose covering a portion of the organ. Subsequently, seven layers from the outer portion towards the middle were identified with a 100 µm distance between each layer. Representative cryosections were obtained from each identified layer of the untreated and drug-treated rat kidney. The agarose surrounding the kidney or liver cryosectioned tissue was manually removed before mounting onto a glass slide. Prior to matrix coating, the glass slides mounted with thin kidney cryosections were placed in a box and kept in a vacuum desiccator cabinet overnight ([Costa et al., 2013]; [Marques et al., 2014]; [Dalisay et al., 2015]; [Suarez et al., 2023]).
Matrix solution was applied to evenly coat the entire tissue surface using a HTX M5 Sprayer (HTX Technologies, LLC, Carrboro, NC, United States). The parameter settings were optimized to avoid metabolite delocalization and compromised spatial integrity. […]

[4] = ref Udeani et al., 2001; Organization for Economic Cooperation and Development, 2020; cited from earlier work
[5] = rat, single oral 2 mg/kg, 24 h, [M+H]+

With `C=C(C)[C@H]1Cc2c(ccc3c2O[C@@H]2COc4cc(OC)c(OC)cc4[C@@H]2C3=O)O1` [rotenone, Rotenone] the “Ion Intensity in Rotenone-treated Kidney Tissues: 3-methylhistidine” value (kidney tissues [1]; Table S1, [M+H]+) was “↓”, the “Ion Intensity in Rotenone-treated Kidney Tissues: Adenosine diphosphate” value (kidney tissues [1]; Table S1, [M+H]+) was “↑” and the “Ion Intensity in Rotenone-treated Kidney Tissues: Adenosine monophosphate” value (kidney tissues [1]; Table S1, [M+H]+) was “↓”. The “Ion Intensity in Rotenone-treated Kidney Tissues: Arginine” value (kidney tissues [1]; Table S1, [M+H]+) was “↓”, the “Ion Intensity in Rotenone-treated Kidney Tissues: Creatinine” value (kidney tissues [1]; Table S1, [M+H]+) was “↓” and the “Ion Intensity in Rotenone-treated Kidney Tissues: Histidine” value (kidney tissues [1]; Table S1, [M+H]+) was “↑”. For the same molecule, the “Ion Intensity in Rotenone-treated Kidney Tissues: L-carnitine” value (kidney tissues [1]; Table S1, [M+H]+) was “↑”, the “Ion Intensity in Rotenone-treated Kidney Tissues: LysoPC(16:0)” value (kidney tissues [1]; Table S1, [M+H]+) was “↓” and the “Ion Intensity in Rotenone-treated Kidney Tissues: LysoPC(16:1)” value (kidney tissues [1]; Table S1, [M+H]+) was “↑”. For the same molecule, the “Ion Intensity in Rotenone-treated Kidney Tissues: LysoPC(17:0)” value (kidney tissues [1]; Table S1, [M+H]+) was “↓”, the “Ion Intensity in Rotenone-treated Kidney Tissues: LysoPC(18:1)” value (kidney tissues [1]; Table S1, [M+H]+) was “↑” and the “Ion Intensity in Rotenone-treated Kidney Tissues: LysoPC(18:2)” value (kidney tissues [1]; Table S1, [M+H]+) was “↑”. The “Ion Intensity in Rotenone-treated Kidney Tissues: LysoPC(20:4)” value (kidney tissues [1]; Table S1, [M+H]+) was “↑”, the “Ion Intensity in Rotenone-treated Kidney Tissues: LysoPC(P-16:0)” value (kidney tissues [1]; Table S1, [M+H]+) was “↓” and the “Ion Intensity in Rotenone-treated Kidney Tissues: N-Acetylhistidine” value (kidney tissues [1]; Table S1, [M+H]+) was “↓”. For the same molecule, the “Ion Intensity in Rotenone-treated Kidney Tissues: O-Phosphotyrosine” value (kidney tissues [1]; Table S1, [M+H]+) was “↓”, the “Ion Intensity in Rotenone-treated Kidney Tissues: Phenylalanine” value (kidney tissues [1]; Table S1, [M+H]+) was “↓” and the “Ion intensity in rotenone-treated kidney tissues: Choline” value (kidney tissues [1]; Table S1, [M+H]+) was “↓***”. The “Ion intensity in rotenone-treated kidney tissues: Sphingomyelin (D18:1/16:0)” value (kidney tissues [1]; Table S1, [M+H]+) was “↑*”, the “Ion intensity in rotenone-treated kidney tissues: Glycero-3-phosphocholine” value (kidney tissues [1]; Table S1) was “↓*” and the “Ion intensity in rotenone-treated kidney tissues: Inosine” value (kidney tissues [1]; Table S1) was “↓**”. For the same molecule, the “Ion intensity in rotenone-treated kidney tissues: LysoPC(18:0)” value (kidney tissues [1]; Table S1) was “↓**”, the “Ion Intensity in Rotenone-treated Kidney Tissues: Phosphorylcholine” value (kidney tissues [1]; Table S1, [M]+) was “↑” and the “Ion intensity in rotenone-treated kidney tissues: Choline” value (kidney tissues [1]; [5]) was “↓***”. The “Ion intensity in rotenone-treated kidney tissues: Sphingomyelin (D18:1/16:0)” value (kidney tissues [1]; [5]) was “↑*”, the “Ion intensity in rotenone-treated kidney tissues: Glycero-3-phosphocholine” value (kidney tissues [1]; rat, single oral 2 mg/kg, 24 h) was “↓*” and the “Ion intensity in rotenone-treated kidney tissues: Inosine” value (kidney tissues [1]; rat, single oral 2 mg/kg, 24 h) was “↓**”. For the same molecule, the “Ion intensity in rotenone-treated kidney tissues: LysoPC(18:0)” value (kidney tissues [1]; rat, single oral 2 mg/kg, 24 h) was “↓**”, the “ion intensity of choline in kidney tissues treated with rotenone” value (kidney tissues [1]; p < 0.001) was “significant decrease” and the “inosine level in treated kidney” value (kidney tissues [1]; p < 0.01) was “significant reduction”. For the same molecule, the “ion intensity levels of LysoPC(18:0) in rotenone-treated kidney tissues” value (kidney tissues [1]; p < 0.01) was “decreased significantly”, the “GPC level in drug-treated kidney tissues” value (kidney tissues [1]; p < 0.05) was “decreased significantly” and the “sphingomyelin (D18:1/16:0) level in treated kidney” value (kidney tissues [1]; p < 0.05) was “significant increase”. For the same molecule, the oral acute toxicity (rats) was 34.10 mg/kg body weight, the “histological alterations in kidney tissue sections stained with H&E” value (kidney tissues [2]) was “no discernible histological alterations were detected” and the “biotransformed metabolites of rotenone in kidney tissue sections (MALDI MSI)” value ([3]; kidney) was “no biotransformed metabolites of rotenone were detected”. The “biotransformed metabolites of rotenone in liver tissues (MALDI MSI)” value ([3]; liver) was “no biotransformed metabolites” and the metabolic clearance rate [4] was “approximately 100 mL/min/kg”.

Reference: PMC11246995 (Frontiers in Molecular Biosciences, 2024)
